The values that follow come from article PMC3985299, “Single Ascending Dose Safety and Pharmacokinetics of CDRI-97/78: First-in-Human Study of a Novel Antimalarial Drug” (Malaria Research and Treatment, 2014).

“And” between values parts separate entries of the source, which are not always exact repeats. Identical values can stand only once. Like-named read-outs stand apart in the source and are kept apart here.

Series [1] can be described thus: Single oral dose (200 mg) pharmacokinetic study, plasma LC-MS/MS, noncompartmental analysis. In kind it is in vivo, human. As for the experimental part:
For pharmacokinetic (PK) study, eligible participants were admitted and housed in the clinical pharmacology unit an evening prior to the PK study. A standard dinner was served and a fasting condition for at least 10 hrs prior to dosing and 4 hrs after dosing was ensured. A peripheral forearm vein was cannulated for sampling for the PK analysis. 200 mg of the study drug was administered with 300 mL of water. The time of actual dose administration to the nearest minute was recorded. 2.5 mL of blood was collected from the indwelling cannula at 0 (before dose), 0.25, 0.5, 0.75, 1, 1.5, 2, 4, 6, 8, 12, 18, 24, 48, 72, 96, 120, and 144 hrs (after dose). 10 mL of additional blood was collected at 0 (before dose) and 24 hr (after dose) for laboratory parameters for safety assessment and PK control sample. A time window of ±2 minutes was permitted for collecting the post dose samples from the scheduled time for PK analysis. Plasma was separated from blood sample intended for PK analysis, within 1 hour of blood sampling, by centrifugation at 2000 rpm for 10 min at 4°C. Samples were stored at −80°C pending transportation. Heparinised blood samples were transported to the laboratory within 7 days of collection. Quantitative analyses of clinical phase ascending dose and single dose PKs samples were done at GLP lab of Pharmacokinetics and Metabolism Division, CDRI, Lucknow, India. α-Arteether was used as an internal standard and all the analyses were performed as per the published method by Singh et al. 2009 [19]. Acceptance criteria for analytical runs were fixed as per internationally approved guidelines. Data acquisition and quantitation were performed using analyst software version 1.4 (Applied Biosystems, MDS SCIEX Toronto, Canada). PK parameters were estimated by using WinNonlin software (Version 1.5, Pharsight Corporation, Mountain View, CA). Oral data were best fitted in noncompartmental model. The individual plasma concentration-time profiles were subjected to noncompartmental analysis to determine various PK parameters. The PK parameters included the terminal elimination half-life (T 1/2), maximum plasma concentration (C max), time to reach maximum plasma concentration (T max), area under the curve (AUC0–∞), and mean residence time (MRT).

Details of series [2]: method as in printed. Conditions: background statement, ref not given; cited from earlier work.
Where [3] appears, read: 97/63 after oral 97/78 200 mg single dose, Mean ± SEM, N = 16.
The mark [4] stands for this setting: 97/63 in plasma after oral 97/78 200 mg single dose, individual volunteers 1-16.
The mark [5] stands for this setting: human, plasma, po, 200 mg, 97/63 after oral 97/78 200 mg single dose, Mean ± SEM, N = 16.

As for `C=C(c1ccc(OC(C)(C)CO)cc1)C1COC2(OO1)C1CC3CC(C1)CC2C3` (stereo not drawn) [97/63], in series [1] (setting [3]), the “AUC0−∞” value is listed as 878.74 ± 133.15 ng·h/mL and the MRT (commonly the average time that molecules of a dose stay in the body) came out at 13.77 ± 2.05 h. Moreover, in series [1] (setting [4]), the “AUC0−∞” value was 788.7 ng·h/mL and 1898.9 ng·h/mL and 935 ng·h/mL and 356.1 ng·h/mL and 583.6 ng·h/mL and 696.8 ng·h/mL and 833.1 ng·h/mL and 984.1 ng·h/mL and 104.8 ng·h/mL and 1644 ng·h/mL and 602.6 ng·h/mL and 785 ng·h/mL and 1522.6 ng·h/mL and 207.9 ng·h/mL and 1604.9 ng·h/mL and 511.7 ng·h/mL; the C max is 172 ng/mL and 295 ng/mL and 47.4 ng/mL and 50.4 ng/mL and 65.4 ng/mL and 105 ng/mL and 55 ng/mL and 123 ng/mL and 20.1 ng/mL and 373 ng/mL and 187 ng/mL and 149 ng/mL and 355 ng/mL and 42.6 ng/mL and 202 ng/mL and 60.9 ng/mL; the MRT was 12.57 h and 9.76 h and 30.72 h and 14.53 h and 11.26 h and 18.37 h and 32.20 h and 18.52 h and 5.72 h and 13.7 h and 3.53 h and 5.38 h and 14.25 h and 6.42 h and 14.13 h and 9.28 h; the “T 1/2” value was 13.89 h and 11.63 h and 24.26 h and 14.50 h and 10.10 h and 17.73 h and 24.51 h and 18.90 h and 2.17 h and 4.78 h and 2.20 h and 3.88 h and 21.27 h and 3.00 h and 8.94 h and 7.80 h. Besides, in series [1] (setting [4]), the T max was 1.5 h (5×) and 2 h (6×) and 4 h (4×) and 1 h. For the same molecule, in series [1] (after oral 97/78 200 mg), the “First time at which quantified in plasma” value turned out to be 0.5 h. The “Last time at which quantified in plasma” value in series [1] (after oral 97/78 200 mg, two volunteers up to 72 h) was “up to 48 h”. Besides, in series [1] (setting [5]), the highest level (Cmax) was 144 ± 28.3 ng/mL and the time to peak (Tmax) (commonly the time at which the peak concentration occurs) worked out at 2.28 ± 0.27 h. For the same molecule, the AUC(0-inf) – broadly, the area under the concentration-time curve extrapolated to infinity – in series [1] (male, human, plasma, po, 200 mg, 97/63 after oral 97/78 200 mg single dose, Mean ± SEM, N = 16) came out at 845 ± 143 ng·h/mL. In addition, the MRT in series [1] (male, human, plasma, po, 200 mg, 97/63 after oral 97/78 200 mg single dose, Mean ± SEM, N = 16, read-out: MRT) is 9.73 ± 1.06 h. In addition, in series [1] (male, human, plasma, po, 200 mg, 97/63 after oral 97/78 200 mg, mean, as given in text without unit), the Cmax – broadly, the peak of the concentration-time curve – amounted to 144 ± 28.3 ng/mL. For the same molecule, the Bioavailability result in series [2] was “poor”.
